The source of these data is PubChem BioAssay AID602280 (Broad Institute, 2012).

Activity calls are given as the source filed them.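 The calls were made as follows: active = compound whose fitted growth curve, scaled so untreated is 0 and control 100, reaches 40 within the tested doses; inconclusive = flat curve between 30 and 70 percent, or unreliable fit; inactive = the rest, including drops in growth.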

The subject of this experiment is S. cerevisiae GAL-BEM3 growth rescue, OD600, 48 h. Nature of the experiment: rescue of BEM3-induced yeast toxicity, dose response, S. cerevisiae, dry powder, plate reader (AID 602280).
Take `CC(C)c1ccc(C2NC(=O)c3ccccc3O2)cc1` (centres undefined): the AC40 was 2.3 µM.

On to `Fc1cc(NCc2ccccc2)nc(NCc2ccccc2)n1`, for which the AC40 is 8.75 µM.

On to `Cc1ccccc1CSc1nsc(N)n1`, for which the AC40 is > 26 µM (inactive).

Consider `O=c1c2ccccc2[nH]c(=S)n1CCC1=CCCCC1`, for which the AC40 is 22 µM.
